The results in this text go back to US20090019923A1, “Method for measuring octanol-water distribution coefficients of surfactants” (Clariant International Ltd., priority 2007, published 2009).

This data set is described as follows: octanol-water distribution coefficient by slow stirring, evaporation/re-dissolution and surface tension vs. concentration calibration curve. Particulars: for conc. Caq (concentration in the aqueous layer): after equilibration with octanol, initial 1 g/L; for logP: initial 1 g/L in aqueous layer, residue in 0.2 M KCl, single samples of replicates A, B.

Values joined by “and” are separate entries in the source; they are usually repeats but may differ in a detail not shown here. Identical values can stand only once.

In turn, C10-C13 linear alkylbenzene sulfonate gave a Non-micellised surfactant cnon-micellised (aqueous layer at equilibrium, cmc greater than caq) of 0.16 g/L. For the same substance, the “Equilibrium concentration in aqueous layer, caq” value (original concentration 1 g/L, 100 mL water/100 mL octanol, stirred 8 h) amounted to 0.16 g/L. The “Concentation in octanol layer, c0-caq” value (original concentration 1 g/L, from mass balance) is 840 µg/mL.
Regarding C22-amidoamine betaine, the “conc. Caq (concentration in the aqueous layer)” value (dilution factor 25) was 550 µg/mL and 630 µg/mL and 600 µg/mL; the “conc. Caq (concentration in the aqueous layer)” value (dilution factor 125) was 570 µg/mL and 590 µg/mL and 630 µg/mL. In addition, the logP is, setting by setting: (100 mL water/100 mL octanol, stirred 8 h, dilution factor 25) −0.09 and −0.22 and −0.18; (100 mL water/100 mL octanol, stirred 8 h, dilution factor 125) −0.12 and −0.15 and −0.22. The logP mean (initial concentration in the aqueous layer 1 g/L, mean of all samples and dilutions) is recorded as −0.17.
